This is an account of results in patent publication US8044052B2, “Biaryl ether urea compounds” (Pfizer Inc., priority 2006, dated 2011).

One data set has as its target T1, Human FAAH (Homo sapiens, UniProt O00519).
T1 construct: made in house
T1 sequence (O00519 1-579): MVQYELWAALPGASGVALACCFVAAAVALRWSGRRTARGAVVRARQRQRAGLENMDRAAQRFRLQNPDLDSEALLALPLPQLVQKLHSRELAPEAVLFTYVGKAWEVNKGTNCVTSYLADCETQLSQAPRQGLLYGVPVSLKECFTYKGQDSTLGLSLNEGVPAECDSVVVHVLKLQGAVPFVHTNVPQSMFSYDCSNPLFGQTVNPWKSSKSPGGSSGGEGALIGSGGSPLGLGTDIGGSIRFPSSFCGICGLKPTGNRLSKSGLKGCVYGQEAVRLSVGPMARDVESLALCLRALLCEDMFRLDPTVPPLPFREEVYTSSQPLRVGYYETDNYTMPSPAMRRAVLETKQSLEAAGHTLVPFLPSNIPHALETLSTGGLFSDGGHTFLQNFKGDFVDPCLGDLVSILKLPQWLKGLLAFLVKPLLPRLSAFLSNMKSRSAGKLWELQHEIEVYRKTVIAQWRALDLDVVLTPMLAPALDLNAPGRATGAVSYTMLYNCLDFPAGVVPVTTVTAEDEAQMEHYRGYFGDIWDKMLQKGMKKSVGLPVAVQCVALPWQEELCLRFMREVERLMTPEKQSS
Description: FAAH assay (glutamate dehydrogenase-coupled, oleamide substrate, absorbance at 340 nm). In kind it is biochemical. Particulars: irreversible inhibition, 1-4 nM FAAH, pH 7.4, 30° C., 90 min; for kinact/KI: read-out: hFAAH kinact/Ki.

In turn, `Cc1ccc(NC(=O)N2CCC(=C(F)c3cccc(Oc4ccc(C(F)(F)F)cn4)c3)CC2)cn1` [Example 70, 4-(fluoro(3-(5-(trifluoromethyl)pyridin-2-yloxy)phenyl)methylene)-N-(6-methylpyridin-3-yl)piperidine-1-carboxamide] had a melting point of 158 to 160 °C. Also, the kinact/KI at Human FAAH is 4590 M⁻¹ s⁻¹.
For the compound “N-pyridin-4-yl-4-(3-{[5-(trifluoromethyl)pyridin-2-yl]oxy}benzylidene)piperidine-1-carboxamide trifluoroacetate [Example 76]”, on Human FAAH, the “hFAAH kinact/Ki” value was found to be 2390 M⁻¹ s⁻¹.
On to “N-(pyridazin-3-yl)-4-(3-{[phenyl-2-yl]oxy}benzylidene)piperidine-1-carboxamide [Example 32]”, for which the “hFAAH kinact/Ki” value on Human FAAH stood at 973 M⁻¹ s⁻¹.
As to `Cc1noc(NC(=O)N2CCC(=Cc3cccc(Oc4ccc(C(F)(F)F)cc4)c3)CC2)c1C` [Example 55, 4-(3-(4-(trifluoromethyl)phenoxy)benzylidene)-N-(3,4-dimethylisoxazol-5-yl)piperidine-1-carboxamide], the kinact/KI at Human FAAH came out at 1610 M⁻¹ s⁻¹.
Still for that read-out and setting: the value for `Cc1ccc(C=C2CCN(C(=O)Nc3cccnc3)CC2)cc1Oc1ccc(C(F)(F)F)cn1` [Example 60, 4-(4-methyl-3-(5-(trifluoromethyl)pyridin-2-yloxy)benzylidene)-N-(pyridin-3-yl)piperidine-1-carboxamide] was 1580 M⁻¹ s⁻¹.
